{"source": "paper PMC8954523", "about": "(Pharmaceutics, 2022)", "test": "Dissolution and solvation thermodynamic functions (van't Hoff; solubility minus sublimation)", "assay_type": "physicochemical", "experimental": "The dissolution thermodynamic parameters on the standard state were determined using mole fraction unitary units. […] Since the resulting solutions are very dilute, and their densities are very close to those of the pure solvents. The density values of the pure solvents were used in calculations (Table S1). […] The temperature dependences of the experimental solubility were treated mathematically by the van't Hoff equation, and the apparent solution enthalpies ΔHsol0 were determined as follows:(3) ∂(lnX2)/∂T=ΔHsol0/RT^2 […] Next, the apparent solution entropies ΔSsol0 were derived by the equation:(5) ΔGsol0=ΔHso[…] The solvation of one mole of the solute molecules in the solvent can be defined as the total change of the standard thermodynamic functions ( ΔGsolv0 , ΔHsolv0 , ΔSsolv0 ) of the compound upon transferring it from the gaseous phase (ideal gas; single molecules without interaction) into the solvent. The transfer process can be presented as the difference between the dissolution and sublimation thermodynamic functions by:(6) ΔYsolv0=ΔYso[…] where ΔY^0 is the standard change of any of the thermodynamic functions (ΔG^0, ΔH^0, ΔS^0) of solvation ( ΔYsolv0 ), dissolution ( ΔYsol0 ) or sublimation ( ΔYsubo ).", "key": {"[1]": {"details": "Table S6, 1-octanol, all studied temperatures"}, "[2]": {"details": "Table S6, ethanol, all studied temperatures"}}, "data": [{"compound": "CC(O)(CS(=O)(=O)c1ccc(F)cc1)C(=O)Nc1ccc(C#N)c(C(F)(F)F)c1", "note": "(stereo not shown) [BCL, bicalutamide]", "values": [{"measurement": "TΔSsol0", "setting": "1-octanol, 298.15 K", "result": 0.263, "unit": "kcal/mol"}, {"measurement": "ΔGsol0", "setting": "1-octanol, 298.15 K", "result": 4.9, "unit": "kcal/mol"}, {"measurement": "ΔHsol0", "setting": "1-octanol, 298.15 K", "result": "5.16 ± 0.096", "unit": "kcal/mol"}, {"measurement": "ΔSsol0", "setting": "1-octanol, 298.15 K", "result": "3.7 ± 3.6", "unit": "J∙mol^−1·K^−1"}, {"measurement": "ζHsolv", "setting": "1-octanol, 298.15 K", "result": 63.3, "unit": "%"}, {"measurement": "ζTSsolv", "setting": "1-octanol, 298.15 K", "result": 36.7, "unit": "%"}, {"measurement": "−TΔSsolv0", "setting": "1-octanol, 298.15 K", "result": 14.3, "unit": "kcal/mol"}, {"measurement": "−ΔGsolv0", "setting": "1-octanol, 298.15 K", "result": 10.3, "unit": "kcal/mol"}, {"measurement": "−ΔHsolv0", "setting": "1-octanol, 298.15 K", "result": 24.64, "unit": "kcal/mol"}, {"measurement": "−ΔSsolv0", "setting": "1-octanol, 298.15 K", "result": 200.9, "unit": "J∙mol^−1·K^−1"}, {"measurement": "TΔSsol0", "setting": "Table S6, 1-octanol, 293.15 K", "result": 0.265, "unit": "kcal/mol"}, {"measurement": "ΔGsol0", "setting": "Table S6, 1-octanol, 293.15 K", "result": 4.897, "unit": "kcal/mol"}, {"measurement": "ΔSsol0", "setting": "Table S6, 1-octanol, 293.15 K", "result": 3.79, "unit": "J∙mol-1·K-1"}, {"measurement": "ζTSsolv", "setting": "Table S6, 1-octanol, 293.15 K", "result": 36.74, "unit": "%"}, {"measurement": "−TΔSsolv0", "setting": "Table S6, 1-octanol, 293.15 K", "result": 14.31, "unit": "kcal/mol"}, {"measurement": "−ΔGsolv0", "setting": "Table S6, 1-octanol, 293.15 K", "result": 10.33, "unit": "kcal/mol"}, {"measurement": "TΔSsol0", "setting": "Table S6, 1-octanol, 298.15 K", "result": 0.265, "unit": "kcal/mol"}, {"measurement": "ΔGsol0", "setting": "Table S6, 1-octanol, 298.15 K", "result": 4.897, "unit": "kcal/mol"}, {"measurement": "ΔSsol0", "setting": "Table S6, 1-octanol, 298.15 K", "result": 3.73, "unit": "J∙mol-1·K-1"}, {"measurement": "ζTSsolv", "setting": "Table S6, 1-octanol, 298.15 K", "result": 36.74, "unit": "%"}, {"measurement": "−TΔSsolv0", "setting": "Table S6, 1-octanol, 298.15 K", "result": 14.31, "unit": "kcal/mol"}, {"measurement": "−ΔGsolv0", "setting": "Table S6, 1-octanol, 298.15 K", "result": 10.33, "unit": "kcal/mol"}, {"measurement": "−ΔSsolv0", "setting": "Table S6, 1-octanol, 298.15 K", "result": 200.87, "unit": "J∙mol-1·K-1"}, {"measurement": "TΔSsol0", "setting": "Table S6, 1-octanol, 303.15 K", "result": 0.275, "unit": "kcal/mol"}, {"measurement": "ΔGsol0", "setting": "Table S6, 1-octanol, 303.15 K", "result": 4.888, "unit": "kcal/mol"}, {"measurement": "ΔSsol0", "setting": "Table S6, 1-octanol, 303.15 K", "result": 3.81, "unit": "J∙mol-1·K-1"}, {"measurement": "ζHsolv", "setting": "Table S6, 1-octanol, 303.15 K", "result": 63.27, "unit": "%"}, {"measurement": "ζTSsolv", "setting": "Table S6, 1-octanol, 303.15 K", "result": 36.73, "unit": "%"}, {"measurement": "−TΔSsolv0", "setting": "Table S6, 1-octanol, 303.15 K", "result": 14.3, "unit": "kcal/mol"}, {"measurement": "−ΔGsolv0", "setting": "Table S6, 1-octanol, 303.15 K", "result": 10.34, "unit": "kcal/mol"}, {"measurement": "TΔSsol0", "setting": "Table S6, 1-octanol, 308.15 K", "result": 0.272, "unit": "kcal/mol"}, {"measurement": "ΔGsol0", "setting": "Table S6, 1-octanol, 308.15 K", "result": 4.89, "unit": "kcal/mol"}, {"measurement": "ΔSsol0", "setting": "Table S6, 1-octanol, 308.15 K", "result": 3.70, "unit": "J∙mol-1·K-1"}, {"measurement": "ζHsolv", "setting": "Table S6, 1-octanol, 308.15 K", "result": 63.27, "unit": "%"}, {"measurement": "ζTSsolv", "setting": "Table S6, 1-octanol, 308.15 K", "result": 36.73, "unit": "%"}, {"measurement": "−TΔSsolv0", "setting": "Table S6, 1-octanol, 308.15 K", "result": 14.31, "unit": "kcal/mol"}, {"measurement": "−ΔGsolv0", "setting": "Table S6, 1-octanol, 308.15 K", "result": 10.33, "unit": "kcal/mol"}, {"measurement": "TΔSsol0", "setting": "Table S6, 1-octanol, 313.15 K", "result": 0.287, "unit": "kcal/mol"}, {"measurement": "ΔGsol0", "setting": "Table S6, 1-octanol, 313.15 K", "result": 4.876, "unit": "kcal/mol"}, {"measurement": "ΔSsol0", "setting": "Table S6, 1-octanol, 313.15 K", "result": 3.82, "unit": "J∙mol-1·K-1"}, {"measurement": "ζHsolv", "setting": "Table S6, 1-octanol, 313.15 K", "result": 63.29, "unit": "%"}, {"measurement": "−ΔSsolv0", "setting": "Table S6, 1-octanol, 313.15 K", "result": 190.96, "unit": "J∙mol-1·K-1"}, {"measurement": "ΔHsol0", "setting": "[1]", "result": 5.16, "unit": "kcal/mol"}, {"measurement": "−ΔHsolv0", "setting": "[1]", "result": 24.64, "unit": "kcal/mol"}, {"measurement": "TΔSsol0", "setting": "Table S6, ethanol, 293.15 K", "result": 2.964, "unit": "kcal/mol"}, {"measurement": "ΔGsol0", "setting": "Table S6, ethanol, 293.15 K", "result": 3.944, "unit": "kcal/mol"}, {"measurement": "ΔSsol0", "setting": "Table S6, ethanol, 293.15 K", "result": 42.29, "unit": "J∙mol-1·K-1"}, {"measurement": "ζHsolv", "setting": "Table S6, ethanol, 293.15 K", "result": 66.34, "unit": "%"}, {"measurement": "TΔSsol0", "setting": "Table S6, ethanol, 298.15 K", "result": 3.023, "unit": "kcal/mol"}, {"measurement": "ΔGsol0", "setting": "Table S6, ethanol, 298.15 K", "result": 3.872, "unit": "kcal/mol"}, {"measurement": "ΔSsol0", "setting": "Table S6, ethanol, 298.15 K", "result": 42.43, "unit": "J∙mol-1·K-1"}, {"measurement": "ζTSsolv", "setting": "Table S6, ethanol, 298.15 K", "result": 33.54, "unit": "%"}, {"measurement": "−ΔGsolv0", "setting": "Table S6, ethanol, 298.15 K", "result": 11.34, "unit": "kcal/mol"}, {"measurement": "TΔSsol0", "setting": "Table S6, ethanol, 303.15 K", "result": 3.081, "unit": "kcal/mol"}, {"measurement": "ΔGsol0", "setting": "Table S6, ethanol, 303.15 K", "result": 3.826, "unit": "kcal/mol"}, {"measurement": "ΔSsol0", "setting": "Table S6, ethanol, 303.15 K", "result": 42.52, "unit": "J∙mol-1·K-1"}, {"measurement": "ζTSsolv", "setting": "Table S6, ethanol, 303.15 K", "result": 33.43, "unit": "%"}, {"measurement": "−TΔSsolv0", "setting": "Table S6, ethanol, 303.15 K", "result": 11.5, "unit": "kcal/mol"}, {"measurement": "−ΔGsolv0", "setting": "Table S6, ethanol, 303.15 K", "result": 11.4, "unit": "kcal/mol"}, {"measurement": "−ΔSsolv0", "setting": "Table S6, ethanol, 303.15 K", "result": 158.70, "unit": "J∙mol-1·K-1"}, {"measurement": "TΔSsol0", "setting": "Table S6, ethanol, 308.15 K", "result": 3.136, "unit": "kcal/mol"}, {"measurement": "ΔGsol0", "setting": "Table S6, ethanol, 308.15 K", "result": 3.772, "unit": "kcal/mol"}, {"measurement": "ΔSsol0", "setting": "Table S6, ethanol, 308.15 K", "result": 42.56, "unit": "J∙mol-1·K-1"}, {"measurement": "ζTSsolv", "setting": "Table S6, ethanol, 308.15 K", "result": 33.32, "unit": "%"}, {"measurement": "−TΔSsolv0", "setting": "Table S6, ethanol, 308.15 K", "result": 11.44, "unit": "kcal/mol"}, {"measurement": "−ΔGsolv0", "setting": "Table S6, ethanol, 308.15 K", "result": 11.45, "unit": "kcal/mol"}, {"measurement": "TΔSsol0", "setting": "Table S6, ethanol, 313.15 K", "result": 3.162, "unit": "kcal/mol"}, {"measurement": "ΔGsol0", "setting": "Table S6, ethanol, 313.15 K", "result": 3.745, "unit": "kcal/mol"}, {"measurement": "ΔSsol0", "setting": "Table S6, ethanol, 313.15 K", "result": 42.24, "unit": "J∙mol-1·K-1"}, {"measurement": "ζTSsolv", "setting": "Table S6, ethanol, 313.15 K", "result": 33.27, "unit": "%"}, {"measurement": "−TΔSsolv0", "setting": "Table S6, ethanol, 313.15 K", "result": 11.42, "unit": "kcal/mol"}, {"measurement": "−ΔGsolv0", "setting": "Table S6, ethanol, 313.15 K", "result": 11.48, "unit": "kcal/mol"}, {"measurement": "ΔHsol0", "setting": "[2]", "result": 6.91, "unit": "kcal/mol"}, {"measurement": "−ΔHsolv0", "setting": "[2]", "result": 22.9, "unit": "kcal/mol"}, {"measurement": "TΔSsol0", "setting": "Table S6, n-hexane, 293.15 K", "result": 3.537, "unit": "kcal/mol"}, {"measurement": "ΔGsol0", "setting": "Table S6, n-hexane, 293.15 K", "result": 8.222, "unit": "kcal/mol"}]}]}
